This note sets out measurements from ChEMBL document CHEMBL3396989, “Discovery of hydroxyaniline amides as selective Extracellular Regulated Kinase (Erk) inhibitors” (Bioorg Med Chem Lett, 2015).

In test [1] the target is T1, Mitogen-activated protein kinase 1 (Homo sapiens, UniProt P28482). Nature of the test: Inhibition of non-activated Erk2 (unknown origin) using activating Mek1 and peptide substrate by coupled Erk2 assay.
Test [2] deals with T1, Mitogen-activated protein kinase 1. Kind of test: Inhibition of activated Erk2 (unknown origin) by biochemical assay.
The target is the same in test [3]. Nature of the test: Binding affinity to non-phosphorylated Erk2 (unknown origin) by TdF assay.
Test [4] has the same target. Nature of the test: Binding affinity to activated Erk2 (unknown origin) by TdF assay.
The target is the same in test [5]. Nature of the test: ATP competitive inhibition of activated Erk2 (unknown origin) by biochemical assay.

T1 sequence (P28482 whole entry): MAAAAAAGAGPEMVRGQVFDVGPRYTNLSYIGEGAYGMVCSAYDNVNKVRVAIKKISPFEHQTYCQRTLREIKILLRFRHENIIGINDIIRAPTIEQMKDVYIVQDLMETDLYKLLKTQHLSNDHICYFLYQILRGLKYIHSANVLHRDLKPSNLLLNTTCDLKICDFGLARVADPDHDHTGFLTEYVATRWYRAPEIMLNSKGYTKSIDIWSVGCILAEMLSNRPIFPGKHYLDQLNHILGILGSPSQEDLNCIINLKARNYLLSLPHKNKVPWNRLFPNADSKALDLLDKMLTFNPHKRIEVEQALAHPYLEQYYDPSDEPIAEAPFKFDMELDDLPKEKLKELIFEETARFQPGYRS

Regarding `O=C(Nc1ccc(O)c(Cl)c1)[C@@H]1CCN(CC(=O)N2CCN(c3ccc(-c4cnccn4)cc3)CC2)C1`, the IC50 in test [1] was 0.014 µM; in test [2] (read-out: IC50), 0.13 µM.

With `O=C(Nc1ccc(O)c(Cl)c1)[C@@H]1CCN(CC(=O)N2CCN(c3ccc(-c4ncc(F)cn4)cc3)CC2)C1`, the IC50 in test [1] turned out to be 0.036 µM; in test [2] (read-out: IC50), 1.76 µM.

On to `O=C(Nc1ccc(O)c(Cl)c1)[C@@H]1CCN(CC(=O)N2CCN(c3ccc(-c4cccs4)cc3)CC2)C1`, for which the values for the IC50 in test [1] and in test [2] (read-out: IC50) were 2.5 µM and 20 µM, respectively.

Consider `CCc1cnc(-c2ccc(N3CCN(C(=O)CN4CC[C@@H](C(=O)Nc5ccc(O)c(Cl)c5)C4)CC3)cc2)nc1`, for which the IC50 in test [1] was found to be 0.005 µM; in test [2] (read-out: IC50), 0.1 µM.

In the case of `CC(=O)c1ccc(N2CCN(C(=O)CN3CCC(C(=O)Nc4ccc(O)cc4)C3)CC2)cc1` (stereo not drawn), the Kd in test [3] was 1.06 µM; in test [4], 1.9 µM. The compound further came in with an IC50 in test [5] of 15.2 µM.

Turning to `O=C(Nc1ccc(O)c(C(F)(F)F)c1)[C@@H]1CCN(CC(=O)N2CCN(c3ccc(-c4ncccn4)cc3)CC2)C1`, the figures for the IC50 in test [1] and in test [2] (read-out: IC50) were 0.005 µM and 0.1 µM, respectively.

On to `COc1ccc(-c2ccc(N3CCN(C(=O)CN4CC[C@@H](C(=O)Nc5ccc(O)c(Cl)c5)C4)CC3)cc2)cc1`, for which the IC50 in test [1] came out at 2.3 µM; in test [2] (read-out: IC50), 50 µM.

As for `O=C(Nc1ccc(O)c(Cl)c1)[C@@H]1CCN(CC(=O)N2CCN(c3ccc(-c4ncccn4)cc3)CC2)C1`, the IC50 was 0.02 µM in test [1] and 0.41 µM in test [2] (read-out: IC50).

For `COc1ncc(-c2ccc(N3CCN(C(=O)CN4CC[C@@H](C(=O)Nc5ccc(O)c(Cl)c5)C4)CC3)cc2)cn1`, the values for the IC50 in test [1] and in test [2] (read-out: IC50) were 0.071 µM and 2.67 µM, respectively.

On to `O=C(Nc1ccc(O)c(Cl)c1)[C@@H]1CCN(CC(=O)N2CCN(c3ccc(-c4ccc(F)cc4)cc3)CC2)C1`, for which the IC50 in test [1] amounted to 19 µM; in test [2] (read-out: IC50) it was 100 µM.

Regarding `O=C(Nc1ccc(O)c(Cl)c1)[C@@H]1CCN(CC(=O)N2CCN(c3ccc(-c4cncnc4)cc3)CC2)C1`, the IC50 in test [1] is 0.073 µM; in test [2] (read-out: IC50), 1.8 µM.

For `O=C(Nc1ccc(O)c(Cl)c1)[C@@H]1CCN(CC(=O)N2CCN(c3ccc(-c4cnco4)cc3)CC2)C1`, the IC50 in test [1] was 1 µM; in test [2] (read-out: IC50), 12 µM.

Turning to `O=C(Nc1ccc(O)c(Cl)c1)[C@@H]1CCN(CC(=O)N2CCN(c3ccc(-c4ccccc4F)cc3)CC2)C1`, the figures for the IC50 in test [1] and in test [2] were 1.2 µM and “Not Active”, respectively.

Consider `CC(C)c1cc(NC(=O)[C@@H]2CCN(CC(=O)N3CCN(c4ccc(-c5ncccn5)cc4)CC3)C2)ccc1O`, for which the IC50 in test [1] came to 0.073 µM; in test [2] (read-out: IC50), 1.8 µM.

`O=C(Nc1ccc(O)c(Cl)c1)[C@@H]1CCN(CC(=O)N2CCN(c3ccc(-c4nccs4)cc3)CC2)C1`: the IC50 in test [1] was 0.3 µM; in test [2] (read-out: IC50) it was 9.34 µM.

In the case of `O=C(Nc1ccc(O)c(C2CC2)c1)[C@@H]1CCN(CC(=O)N2CCN(c3ccc(-c4ncccn4)cc3)CC2)C1`, the IC50 turned out to be 0.036 µM in test [1] and 1.76 µM in test [2] (read-out: IC50).

Turning to `O=C(Nc1ccc(O)c(F)c1)[C@@H]1CCN(CC(=O)N2CCN(c3ccc(-c4ncccn4)cc3)CC2)C1`, the IC50 turned out to be 0.071 µM in test [1] and 2.67 µM in test [2] (read-out: IC50).

As for `CC(=O)c1ccc(N2CCN(C(=O)CN3CC[C@@H](C(=O)Nc4ccc(O)cc4)C3)CC2)cc1`, in test [2] (read-out: IC50), the IC50 was 6 µM.

In the case of `O=C(Nc1ccc(O)c(Cl)c1)[C@@H]1CCN(CC(=O)N2CCN(c3ccc(-c4cccc(F)c4)cc3)CC2)C1`, the values for the IC50 in test [1] and in test [2] were 2.2 µM and “Not Active”, respectively.

As a reminder, the IC50 is the concentration needed to halve the response being measured. One may read the Kd as a measure of binding affinity in units of concentration.
